# According to US20200222474A1, “COMPOSITIONS AND METHODS FOR INCREASING PHYTOCHEMICAL BIOAVAILABLITY AND BIOACTIVITY” (North Carolina State University, priority 2017, published 2020):
# Tested on: L. acidophilus NCFM
# Test: RNA-seq transcriptional analysis of L. acidophilus NCFM growing on plant glycosides
# Format: cell-based, Lactobacillus acidophilus
# [1] = gene LBA0282 (Hypothetical protein)
# [2] = gene LBA0327 (Replication protein)
# [3] = gene LBA0328 (Hypothetical protein)
# [4] = gene LBA0330 (Hypothetical protein)
# [5] = gene LBA0457 (Hypothetical protein)
# [6] = gene LBA0485 (Hypothetical protein)
# [7] = gene LBA0486 (Hypothetical protein)
# [8] = gene LBA0487 (Hypothetical protein.)
# [9] = gene LBA0492 (Hypothetical protein)
# [10] = gene LBA0541 (Cadmium-transporting ATPase)
# [11] = gene LBA0542 (Putative heavy-metal-transporting alpase)
# [12] = gene LBA0543 (Hypothetical protein)
# [13] = gene LBA0544 (Transcriptional regulator)
# [14] = gene LBA0555 (Myosin-crossreactive antigen)
# [15] = gene LBA0564 (HAD family hydrolase)
# [16] = gene LBA0574 (ABC multi drug exporter)
# [17] = gene LBA0575 (ABC multi drug exporter)
# [18] = gene LBA0604 (Immunity protein)
# [19] = gene LBA0605 (Putative hydrolase)
# [20] = gene LBA0608 (Hypothetical protein)
# [21] = gene LBA0631 (Hypothetical protein)
# [22] = gene LBA0649 (Myosin-crossreactive antigen)
# [23] = gene LBA0728 (Hypothetical protein LBA0728)
# [24] = gene LBA1025 (Aldo/keto reductase family oxidoreductase)
# [25] = gene LBA1026 (Aldo/keto reduetase family oxidoreductase)
# [26] = gene LBA1206 (Hypothetical protein)
# [27] = gene LBA1401 (Peroxidase (Npx))
# [28] = gene LBA1435 (Hypothetical protein)
# [29] = gene LBA1455 (Putative surface layer protein)
# [30] = gene LBA1469 (UDP-glucose 4-epimerase)
# [31] = gene LBA1656 (Hypothetical protein)
# [32] = gene LBA1675 (Hypothetical protein)
# [33] = gene LBA1676 (ATP-dependent helicase)
# [34] = gene LBA1683 (Putative magnesium-transporting atpase)
# [35] = gene LBA1704 (N-Acetylmuramic acid-6-phosphate etherase)
# [36] = gene LBA1740 (Hypothetical protein)
# [37] = gene LBA1752 (Hypothetical protein)
# [38] = gene LBA1769 (Hypothetical protein)
# [39] = gene LBA1793 (Hypothetical protein)
# [40] = gene LBA1869 (Beta-phosphoglueomutase)
# [41] = gene LBA1895 (Hypothetical protein)
# [42] = nTPM on plant glycoside relative to glucose, mid-exponential phase
smiles,measurement,setting,value
OCc1ccccc1O[C@@H]1O[C@H](CO)[C@@H](O)[C@H](O)[C@H]1O [Salicin],Log2 differential normalized TPM ratio compared to lactose,[1],0
same,Transcripts per million (rpm),[1],34.3 rpm
same,Log2 differential normalized TPM ratio compared to glucose,[2],0
same,Log2 differential normalized TPM ratio compared to lactose,[2],−0.3
same,Transcripts per million (rpm),[2],8.1 rpm
same,Log2 differential normalized TPM ratio compared to glucose,[3],−0.1
same,Log2 differential normalized TPM ratio compared to lactose,[3],0
same,Transcripts per million (rpm),[3],13.3 rpm
same,Log2 differential normalized TPM ratio compared to glucose,[4],0.4
same,Log2 differential normalized TPM ratio compared to lactose,[4],0
same,Transcripts per million (rpm),[4],27.3 rpm
same,Log2 differential normalized TPM ratio compared to glucose,[5],1.8
same,Log2 differential normalized TPM ratio compared to lactose,[5],0.8
same,Transcripts per million (rpm),[5],1746 rpm
same,Log2 differential normalized TPM ratio compared to glucose,[6],1.9
same,Log2 differential normalized TPM ratio compared to lactose,[6],−0.5
same,Transcripts per million (rpm),[6],770.3 rpm
same,Log2 differential normalized TPM ratio compared to glucose,[7],2.4
same,Log2 differential normalized TPM ratio compared to lactose,[7],−0.4
same,Transcripts per million (rpm),[7],1205 rpm
same,Log2 differential normalized TPM ratio compared to glucose,[8],1.5
same,Log2 differential normalized TPM ratio compared to lactose,[8],0.2
same,Transcripts per million (rpm),[8],96.1 rpm
same,Log2 differential normalized TPM ratio compared to glucose,[9],2
same,Log2 differential normalized TPM ratio compared to lactose,[9],−0.5
same,Transcripts per million (rpm),[9],32.8 rpm
same,Log2 differential normalized TPM ratio compared to glucose,[10],2
same,Log2 differential normalized TPM ratio compared to lactose,[10],−0.3
same,Transcripts per million (rpm),[10],143.6 rpm
same,Log2 differential normalized TPM ratio compared to glucose,[11],1.8
same,Log2 differential normalized TPM ratio compared to lactose,[11],−0.4
same,Transcripts per million (rpm),[11],311.6 rpm
same,Log2 differential normalized TPM ratio compared to glucose,[12],2
same,Log2 differential normalized TPM ratio compared to lactose,[12],−0.4
same,Transcripts per million (rpm),[12],266.3 rpm
same,Log2 differential normalized TPM ratio compared to glucose,[13],1.7
same,Log2 differential normalized TPM ratio compared to lactose,[13],−0.3
same,Transcripts per million (rpm),[13],342.8 rpm
same,Log2 differential normalized TPM ratio compared to glucose,[14],1.4
same,Log2 differential normalized TPM ratio compared to lactose,[14],−0.5
same,Transcripts per million (rpm),[14],118.8 rpm
same,Log2 differential normalized TPM ratio compared to glucose,[15],0.4
same,Log2 differential normalized TPM ratio compared to lactose,[15],−0.2
same,Transcripts per million (rpm),[15],1.4 rpm
same,Log2 differential normalized TPM ratio compared to glucose,[16],−0.7
same,Log2 differential normalized TPM ratio compared to lactose,[16],−1
same,Transcripts per million (rpm),[16],54.6 rpm
same,Log2 differential normalized TPM ratio compared to glucose,[17],−0.5
same,Log2 differential normalized TPM ratio compared to lactose,[17],−0.8
same,Transcripts per million (rpm),[17],55.6 rpm
same,Log2 differential normalized TPM ratio compared to glucose,[18],−0.1
same,Log2 differential normalized TPM ratio compared to lactose,[18],−0.6
same,Transcripts per million (rpm),[18],14.3 rpm
same,Log2 differential normalized TPM ratio compared to glucose,[19],1.2
same,Log2 differential normalized TPM ratio compared to lactose,[19],0.2
same,Transcripts per million (rpm),[19],6.3 rpm
same,Log2 differential normalized TPM ratio compared to glucose,[20],1.4
same,Log2 differential normalized TPM ratio compared to lactose,[20],0.3
same,Transcripts per million (rpm),[20],95.4 rpm
same,Log2 differential normalized TPM ratio compared to glucose,[21],2.9
same,Log2 differential normalized TPM ratio compared to lactose,[21],−0.2
same,Transcripts per million (rpm),[21],9342.6 rpm
same,Log2 differential normalized TPM ratio compared to glucose,[22],1.6
same,Log2 differential normalized TPM ratio compared to lactose,[22],0.8
same,Transcripts per million (rpm),[22],116.3 rpm
same,Log2 differential normalized TPM ratio compared to glucose,[23],4.1
same,Log2 differential normalized TPM ratio compared to lactose,[23],2.3
same,Transcripts per million (rpm),[23],43.8 rpm
same,Log2 differential normalized TPM ratio compared to lactose,gene LBA0802 (Hypothetical protein),−0.2
same,Log2 differential normalized TPM ratio compared to glucose,gene LBA0861 (Polyferredoxin),0.1
same,Log2 differential normalized TPM ratio compared to lactose,gene LBA0861 (Polyferredoxin),−0.5
same,Transcripts per million (rpm),gene LBA0861 (Polyferredoxin),196.3 rpm
same,Log2 differential normalized TPM ratio compared to glucose,gene LBA1023 (Oxidoreductase),−0.4
same,Log2 differential normalized TPM ratio compared to lactose,gene LBA1023 (Oxidoreductase),−0.7
same,Transcripts per million (rpm),gene LBA1023 (Oxidoreductase),132.8 rpm
same,Log2 differential normalized TPM ratio compared to glucose,[24],−0.4
same,Log2 differential normalized TPM ratio compared to lactose,[24],−0.5
same,Transcripts per million (rpm),[24],23.7 rpm
same,Log2 differential normalized TPM ratio compared to glucose,[25],−0.3
same,Log2 differential normalized TPM ratio compared to lactose,[25],−0.8
same,Transcripts per million (rpm),[25],26.1 rpm
same,Log2 differential normalized TPM ratio compared to glucose,gene LBA1027 (Oxidoreductase),2.2
same,Log2 differential normalized TPM ratio compared to lactose,gene LBA1027 (Oxidoreductase),0.6
same,Transcripts per million (rpm),gene LBA1027 (Oxidoreductase),2726.8 rpm
same,Log2 differential normalized TPM ratio compared to glucose,[26],1.5
same,Log2 differential normalized TPM ratio compared to lactose,[26],0.3
same,Transcripts per million (rpm),[26],391.2 rpm
same,Log2 differential normalized TPM ratio compared to glucose,[27],2.7
same,Log2 differential normalized TPM ratio compared to lactose,[27],0.6
same,Transcripts per million (rpm),[27],466.6 rpm
same,Log2 differential normalized TPM ratio compared to glucose,[28],3.6
same,Log2 differential normalized TPM ratio compared to lactose,[28],−0.2
same,Transcripts per million (rpm),[28],52.5 rpm
same,Log2 differential normalized TPM ratio compared to glucose,[29],0.1
same,Log2 differential normalized TPM ratio compared to lactose,[29],−1.6
same,Transcripts per million (rpm),[29],18.3 rpm
same,Log2 differential normalized TPM ratio compared to glucose,[30],1.4
same,Log2 differential normalized TPM ratio compared to lactose,[30],−3.6
same,Transcripts per million (rpm),[30],235.5 rpm
same,Log2 differential normalized TPM ratio compared to glucose,[31],0.9
same,Log2 differential normalized TPM ratio compared to lactose,[31],0.3
same,Transcripts per million (rpm),[31],38.2 rpm
same,Log2 differential normalized TPM ratio compared to glucose,[32],2
same,Log2 differential normalized TPM ratio compared to lactose,[32],0.5
same,Transcripts per million (rpm),[32],1669.1 rpm
same,Log2 differential normalized TPM ratio compared to glucose,[33],1.7
same,Log2 differential normalized TPM ratio compared to lactose,[33],0.5
same,Transcripts per million (rpm),[33],1070.6 rpm
same,Log2 differential normalized TPM ratio compared to glucose,[34],0.3
same,Log2 differential normalized TPM ratio compared to lactose,[34],0.5
same,Transcripts per million (rpm),[34],20.2 rpm
same,Log2 differential normalized TPM ratio compared to glucose,[35],0.7
same,Log2 differential normalized TPM ratio compared to lactose,[35],0.1
same,Transcripts per million (rpm),[35],11.6 rpm
same,Log2 differential normalized TPM ratio compared to glucose,[36],0.3
same,Log2 differential normalized TPM ratio compared to lactose,[36],−0.5
same,Transcripts per million (rpm),[36],23.1 rpm
same,Log2 differential normalized TPM ratio compared to glucose,[37],0.6
same,Log2 differential normalized TPM ratio compared to lactose,[37],−0.3
same,Transcripts per million (rpm),[37],13 rpm
same,Log2 differential normalized TPM ratio compared to glucose,[38],1.8
same,Log2 differential normalized TPM ratio compared to lactose,[38],−0.1
same,Transcripts per million (rpm),[38],5527.5 rpm
same,Log2 differential normalized TPM ratio compared to glucose,[39],1.2
same,Log2 differential normalized TPM ratio compared to lactose,[39],−1.7
same,Transcripts per million (rpm),[39],37.8 rpm
same,Log2 differential normalized TPM ratio compared to glucose,gene LBA1796 (ABC exporter),1
same,Log2 differential normalized TPM ratio compared to lactose,gene LBA1796 (ABC exporter),−1.6
same,Transcripts per million (rpm),gene LBA1796 (ABC exporter),18.3 rpm
same,Log2 differential normalized TPM ratio compared to glucose,[40],2.4
same,Log2 differential normalized TPM ratio compared to lactose,[40],−0.1
same,Transcripts per million (rpm),[40],43.1 rpm
same,Log2 differential normalized TPM ratio compared to glucose,[41],0.7
same,Log2 differential normalized TPM ratio compared to lactose,[41],0.5
same,Transcripts per million (rpm),[41],46.2 rpm
same,"Log2 Ratio vs Glc, LBA0225 Phospho-β-glucosidase (GH1)",[42],−0.1
same,"Log2 Ratio vs Glc, LBA0227 PTS EIIC",[42],0.9
same,"Log2 Ratio vs Glc, LBA0228 Transcriptional regulator",[42],0.1
same,"Log2 Ratio vs Glc, LBA0466 Phosphoenolpyruvate carboxykinase (ATP)",[42],1.3
same,"Log2 Ratio vs Glc, LBA0491 PTS EIIC",[42],1.5
same,"Log2 Ratio vs Glc, LBA0492 Hypothetical protein",[42],2
same,"Log2 Ratio vs Glc, LBA0555 Myosin-cross-reactive antigen/Fatty acid hydratase",[42],1.4
same,"Log2 Ratio vs Glc, LBA0606 PTS EIIBC",[42],2.5
same,"Log2 Ratio vs Glc, LBA0631 Hypothetical protein",[42],2.9
same,"Log2 Ratio vs Glc, LBA0724 Transcriptional regulator (antiterminator)",[42],5.3
same,"Log2 Ratio vs Glc, LBA0725 PTS EIICBA",[42],8.9
same,"Log2 Ratio vs Glc, LBA0726 Phospho-β-glucosidase (GH1)",[42],6.2
same,"Log2 Ratio vs Glc, LBA0728 Hypothetical protein",[42],4.1
same,"Log2 Ratio vs Glc, LBA0876 PTS EIIC",[42],2.4
same,"Log2 Ratio vs Glc, LBA0877 PTS EIIA",[42],1.3
same,"Log2 Ratio vs Glc, LBA1401 Peroxidase (Npx)",[42],2.7
same,"Log2 Ratio vs Glc, LBA1411 Fumarate reductase flavoprotein subunit",[42],1.4
same,"Log2 Ratio vs Glc, LBA1433 Dihydroxyacetone kinase",[42],2.7
same,"Log2 Ratio vs Glc, LBA1434 Dihydroxyacetone kinase",[42],3.3
same,"Log2 Ratio vs Glc, LBA1435 Hypothetical protein",[42],3.6
same,"Log2 Ratio vs Glc, LBA1436 Glycerol uptake facilitator protein",[42],3.8
same,"Log2 Ratio vs Glc, LBA1632 NAD-dependent aldehyde dehydrogenase",[42],2
same,"Log2 Ratio vs Glc, LBA1684 PTS EIIA",[42],2.6
same,"Log2 Ratio vs Glc, LBA1689 Maltose-6′-phosphate glucosidase (GH4)",[42],3.7
same,"Log2 Ratio vs Glc, LBA1701 Melibiose operon regulatory protein",[42],1
same,"Log2 Ratio vs Glc, LBA1709 Mucus binding protein precursor",[42],0.5
same,"Log2 Ratio vs Glc, LBA1797 Hypothetical protein",[42],1.3
same,"Log2 Ratio vs Glc, LBA1812 α-Glucosidase II (GH31)",[42],2.2
same,"Log2 Ratio vs Glc, LBA1869 β-Phosphoglucomutase",[42],2.4
same,"Log2 Ratio vs Glc, LBA1871 Neopullulanase (GH13)",[42],0.9
same,"Log2 Ratio vs Glc, LBA1873 Acetate kinase",[42],1.2
same,"Log2 Ratio vs Glc, LBA1974 Pyruvate oxidase",[42],1.8
